Reference: patent US9855230B2 (ViiV Healthcare UK (No. 5) Limited, priority 2014, dated 2018)
Where a name gives a salt, the structure may show the parent alone. Read-outs that look alike come from different tables or passages of the source.

Experiments:
[1] = test system: recombinant NL4-3 virus (nef section replaced with Renilla luciferase gene) in MT-2 cells; experiment: whole plant or invertebrate; type: cell-based, HIV; details: NL43, luciferase activity in MT-2 cells infected 4-5 days with recombinant NL4-3 virus
Outline: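 Nef-deleted NL4-3 reporter virus carrying Renilla luciferase was used to infect MT-2 cells in the presence of serial compound dilutions. After 4-5 days of infection, antiviral activity was quantified from luciferase activity using a live-cell substrate.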

[2] = Compound cytotoxicity (CC50), XTT-based colorimetric assay; type: cell-based; details: human; uninfected MT2 cells, day 4, XTT assay
Outline: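 Run under the antiviral-assay protocol but without virus. Viability was read on day 4 and CC50 values were derived from the readout.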

Row | Structure (SMILES) | EC50 ([1]; read-out: Activity) | EC50 ([1]; read-out: EC50) | CC50 at 4 day [2]
1 | Cc1ccccc1S(=O)(=O)NC(=O)N[C@H](Cc1cc(F)cc(F)c1)c1ncccc1-c1ccc(F)c(C(N)=O)c1 [Example 117, (R)-5-(2-(2-(3,5-difluorophenyl)-1-(3-(o-tolylsulfonyl)ureido)ethyl)pyridin-3-yl)-2-fluorobenzamide, TFA] | > 1 µM | 8.34 µM | > 100 µM
2 | COC(=O)Nc1ccc(-c2cccnc2C(Cc2ccccc2)NC(=O)NS(=O)(=O)c2ccccc2Cl)cc1 (stereo not drawn) [Example 118, methyl (4-(2-(1-(3-((2-chlorophenyl)sulfonyl)ureido)-2-phenylethyl)pyridin-3-yl)phenyl)carbamate, TFA] | > 1 µM | – | > 100 µM
3 | Cc1ccccc1S(=O)(=O)NC(=O)N[C@@H](Cc1cc(F)cc(F)c1)c1ncccc1-c1ccc2cn(C)nc2c1 [Example 119, (S)-N-((2-(3,5-difluorophenyl)-1-(3-(2-methyl-2H-indazol-6-yl)pyridin-2-yl)ethyl)carbamoyl)-2-methylbenzenesulfonamide, TFA] | 0.1 to 1 µM | – | 58 µM
4 | Cc1ccccc1S(=O)(=O)NC(=O)N[C@@H](Cc1cc(F)cc(F)c1)c1ncccc1-c1ccc(CN(C)C)cc1 [Example 120, (S)-N-((2-(3,5-difluorophenyl)-1-(3-(4-((dimethylamino)methyl)phenyl)pyridin-2-yl)ethyl)carbamoyl)-2-methylbenzenesulfonamide, TFA] | 0.1 to 1 µM | 0.36 µM | > 100 µM
5 | Cc1ccccc1S(=O)(=O)NC(=O)N[C@@H](Cc1cc(F)cc(F)c1)c1ncccc1-c1cccc(CO)c1 [Example 121, (S)-N-((2-(3,5-difluorophenyl)-1-(3-(3-(hydroxymethyl)phenyl)pyridin-2-yl)ethyl)carbamoyl)-2-methylbenzenesulfonamide, TFA] | 0.1 to 1 µM | – | > 100 µM
6 | Cc1ccccc1S(=O)(=O)NC(=O)N[C@@H](Cc1cc(F)cc(F)c1)c1ncccc1-c1ccc(CN2CCOCC2)s1 [Example 122, (S)-N-((2-(3,5-difluorophenyl)-1-(3-(5-(morpholinomethyl)thiophen-2-yl)pyridin-2-yl)ethyl)carbamoyl)-2-methylbenzenesulfonamide, 2 TFA] | 0.1 to 1 µM | – | > 100 µM
7 | CCOc1ccc(-c2cccnc2[C@H](Cc2cc(F)cc(F)c2)NC(=O)NS(=O)(=O)c2ccccc2C)cc1F [Example 123, (S)-N-((2-(3,5-difluorophenyl)-1-(3-(4-ethoxy-3-fluorophenyl)pyridin-2-yl)ethyl)carbamoyl)-2-methylbenzenesulfonamide, TFA] | 0.1 to 1 µM | 0.6 µM | 55 µM
8 | COc1ncccc1-c1cccnc1[C@H](Cc1cc(F)cc(F)c1)NC(=O)NS(=O)(=O)c1ccccc1C [Example 124, (S)-N-((2-(3,5-difluorophenyl)-1-(2′-methoxy-[3,3′-bipyridin]-2-yl)ethyl)carbamoyl)-2-methylbenzenesulfonamide, TFA] | > 1 µM | – | > 100 µM
9 | Cc1ccccc1S(=O)(=O)NC(=O)N[C@@H](Cc1cc(F)cc(F)c1)c1ncccc1-c1ccc(-c2cccs2)cc1 [Example 125, (S)-N-((2-(3,5-difluorophenyl)-1-(3-(4-(thiophen-2-yl)phenyl)pyridin-2-yl)ethyl)carbamoyl)-2-methylbenzenesulfonamide, TFA] | > 1 µM | – | 38 µM
10 | Cc1ccccc1S(=O)(=O)NC(=O)N[C@@H](Cc1cc(F)cc(F)c1)c1ncccc1-c1ccnc(F)c1C [Example 126, (S)-N-((2-(3,5-difluorophenyl)-1-(2′-fluoro-3′-methyl-[3,4′-bipyridin]-2-yl)ethyl)carbamoyl)-2-methylbenzenesulfonamide, TFA] | > 1 µM | 1.52 µM | > 33 µM
11 | Cc1ccccc1S(=O)(=O)NC(=O)N[C@@H](Cc1cc(F)cc(F)c1)c1ncccc1-c1coc2ccccc12 [Example 127, (S)-N-((1-(3-(benzofuran-3-yl)pyridin-2-yl)-2-(3,5-difluorophenyl)ethyl)carbamoyl)-2-methylbenzenesulfonamide, TFA] | > 1 µM | – | 72 µM
12 | Cc1ccccc1S(=O)(=O)NC(=O)N[C@@H](Cc1cc(F)cc(F)c1)c1ncccc1-c1ccc(C#N)cc1 [Example 128, (S)-N-((1-(3-(4-cyanophenyl)pyridin-2-yl)-2-(3,5-difluorophenyl)ethyl)carbamoyl)-2-methylbenzenesulfonamide, TFA] | > 1 µM | – | 80 µM
13 | Cc1ccccc1S(=O)(=O)NC(=O)N[C@@H](Cc1cc(F)cc(F)c1)c1ncccc1-c1cccc(C(=O)OC(C)(C)C)c1 [Example 130, (S)-tert-butyl 3-(2-(2-(3,5-difluorophenyl)-1-(3-(o-tolylsulfonyl)ureido)ethyl)pyridin-3-yl)benzoate, TFA] | > 1 µM | – | 53 µM
14 | Cc1ccccc1S(=O)(=O)NC(=O)N[C@@H](Cc1cc(F)cc(F)c1)c1ncccc1-c1ccc(F)c(C(=O)O)c1 [Example 131, (S)-5-(2-(2-(3,5-difluorophenyl)-1-(3-(o-tolylsulfonyl)ureido)ethyl)pyridin-3-yl)-2-fluorobenzoic Acid, TFA] | > 1 µM | – | > 100 µM
15 | Cc1ccccc1S(=O)(=O)NC(=O)N[C@@H](Cc1cc(F)cc(F)c1)c1ncccc1-c1ccc(F)c2ccccc12 [Example 132, (S)-N-((2-(3,5-difluorophenyl)-1-(3-(4-fluoronaphthalen-1-yl)pyridin-2-yl)ethyl)carbamoyl)-2-methylbenzenesulfonamide, TFA] | > 1 µM | 4.81 µM | 73 µM
16 | Cc1cc(-c2cccnc2[C@H](Cc2cc(F)cc(F)c2)NC(=O)NS(=O)(=O)c2ccccc2C)c(C)s1 [Example 133, (S)-N-((2-(3,5-difluorophenyl)-1-(3-(2,5-dimethylthiophen-3-yl)pyridin-2-yl)ethyl)carbamoyl)-2-methylbenzenesulfonamide, TFA] | > 1 µM | – | 71 µM
17 | COc1c(F)cc(F)cc1-c1cccnc1[C@H](Cc1cc(F)cc(F)c1)NC(=O)NS(=O)(=O)c1ccccc1C [Example 134] | > 1 µM | – | > 50 µM
